This is an account of results in patent US9487476B2, “Catechol diethers as potent anti-HIV agents” (priority 2011, dated 2016).

Read-outs that look alike come from different tables or passages of the source.

For data set [1], the system named is HIV-1 K103N/Y181C variant. The conditions noted are these: literature; read-out: reported anti-HIV activity, K103N/Y181C; cited from earlier work.
The subject of data set [2] is HIV-1 Y181C variant. Conditions: literature; read-out: reported anti-HIV activity, Y181C; cited from earlier work.
Data set [3] has as its system HIV-1 variant containing the K103N/Y181C mutations. In words: Anti-HIV-1 activity against double-mutant strain in MT-2 cells (MTT). The format is cell-based.
Data set [4] concerns HIV-1 variant containing the Y181C (Tyr181Cys) mutation. Put plainly: Anti-HIV-1 activity against variant strain in MT-2 cells (MTT). It counts as cell-based.
The next data set deals with MT-2 human T-cells. In words: Cytotoxicity, inhibition of MT-2 cell growth. The format is cell-based.
Another data set concerns WT HIV-1 (IIIB strain). In words: Anti-HIV-1 activity, protection of infected MT-2 cells (MTT). The format is cell-based.
The nature of data set [5]: Cytotoxicity, inhibition of MT-2 cell growth. The format is cell-based, human. The conditions noted are these: human.
Data set [6] relates to WT HIV-1. The conditions noted are these: literature; read-out: reported anti-HIV activity, WT HIV-1; cited from earlier work.
Data set [7] has as its system HIV-1 Y181C variant. Conditions: Table 5, literature data (ref. 28), MT4 cells; cited from earlier work.
In data set [8] the test system is WT HIV-1. Conditions: Table 5, literature data (ref. 28), MT4 cells; cited from earlier work.
The test system of data set [9] is HIV-1 K103N/Y181C variant. Conditions: Table 5, literature data (ref. 28), MT4 cells; cited from earlier work.
In a further data set the test system is MT4 cells. The conditions noted are these: Table 5, literature data (ref. 28); cited from earlier work.
Setting [10] is: Human immunodeficiency virus 1, MT2, read-out: EC50 K103N/Y181C.
[11] abbreviates: Human immunodeficiency virus 1, MT2, read-out: EC50 Y181C.
[12] abbreviates: Human immunodeficiency virus 1, IIIB, MT2, running text, read-out: EC50 against WT HIV-1.
Setting [13] is: Human immunodeficiency virus 1, MT2, read-out: EC50 K103N/Y181C variant.
Where [14] appears, read: Human immunodeficiency virus 1, MT2, read-out: EC50 Y181C variant.
Where [15] appears, read: Table 5, MT-2 cells, read-out: EC50 K103N/Y181C.
Where [16] appears, read: Table 5, MT-2 cells, read-out: EC50 Y181C.
Where [17] appears, read: Table 4, MT-2 cells, read-out: Cytotoxicity (CC50).
The mark [18] stands for this setting: Table 5, MT-2 cells, read-out: Average Cytotoxicity (CC50).
Where [19] appears, read: Table 4, catechol diether derivatives, MT-2 cells, read-out: Anti-HIV-1 Activity (EC50).
[20] abbreviates: Table 5, MT-2 cells, read-out: EC50 WT.
[21] abbreviates: Human immunodeficiency virus 1, IIIB, MT2, read-out: Anti-HIV Activity (EC50).

Regarding `Cc1cc(C)cc(Oc2c(CSCc3ccco3)c(C)[nH]c(=O)c2I)c1` [Compound 3], the EC50 (in data set [1]; in the data set with HIV-1 Y181C variant [2]) was below 10 nM throughout.

The CC50 is the concentration giving 50% cytotoxicity. In the case of `N#Cc1cc(Cl)cc(Oc2ccc(Cl)cc2OCCn2ccc(=O)[nH]c2=O)c1` [Compound 25, 3-chloro-5-(4-chloro-2-(2-(2,4-dioxo-3,4-dihydropyrimidin-1(2H)-yl)ethoxy)phenoxy)benzonitrile], the EC50 in [3] (setting [10]) turned out to be 1700 nM; in [4] (setting [11]) it was 520 nM; in the data set with WT HIV-1 (IIIB strain) (setting [12]) it was 14 nM. Besides, the CC50 in the data set with MT-2 human T-cells (human) was above 100000 nM. Also, the “cytotoxicity, limit of the tested concentration range” value in the data set with MT-2 human T-cells (human) is above 100 µM.

Turning to `N#Cc1cc(Cl)cc(Oc2ccc(Cl)cc2OCCn2cc(Cl)c(=O)[nH]c2=O)c1` [Compound 27, 3-chloro-5-(4-chloro-2-(2-(5-chloro-2,4-dioxo-3,4-dihydropyrimidin-1(2H)-yl)ethoxy)phenoxy)benzonitrile], the “ratio between variant and WT activities (K103N/Y181C / WT)” value in [3] was found to be 34 fold. Also, the EC50 in data set [3] (setting [10]) was determined as 570 nM; in [3] (setting [13]), 570 nM; in data set [4] (setting [11]), 240 nM; in data set [4] (setting [14]) it was 240 nM; in the data set on WT HIV-1 (IIIB strain) (setting [12]), 17 nM. The “ratio between variant and WT activities (Y181C/WT)” value in data set [4] was found to be 14 fold. This molecule also yielded a CC50 in the data set on MT-2 human T-cells (human) of 21000 nM.

For the molecule `N#C/C=C/c1cccc(Oc2ccc(Cl)cc2OCCn2ccc(=O)[nH]c2=O)c1` [Compound 41, (E)-3-(3-(4-chloro-2-(2-(2,4-dioxo-3,4-dihydropyrimidin-1(2H)-yl)ethoxy)phenoxy)phenyl)acrylonitrile], the EC50 in [3] (setting [10]) came out at 1600 nM; in [4] (setting [11]), 370 nM; in the data set with WT HIV-1 (IIIB strain) (setting [12]), 5 nM.

Turning to `N#C/C=C/c1cc(Cl)cc(Oc2ccc(Cl)cc2OCCn2ccc(=O)[nH]c2=O)c1` [Compound 42, (E)-3-(3-chloro-5-(4-chloro-2-(2-(2,4-dioxo-3,4-dihydropyrimidin-1(2H)-yl)ethoxy)phenoxy)phenyl)acrylonitrile], the EC50 in data set [3] (setting [10]) amounted to 220 nM; in data set [3] (setting [13]), 220 nM; in [4] (setting [11]), 49 nM; in data set [4] (setting [14]), 49 nM; in the data set with WT HIV-1 (IIIB strain) (Human immunodeficiency virus 1, IIIB, MT2, read-out: EC50, initial WT assay), 0.024 nM; in the data set on WT HIV-1 (IIIB strain) (Human immunodeficiency virus 1, IIIB, MT2, running text, side-by-side re-assay, read-out: EC50 against WT HIV-1) it was 0.055 nM. The same molecule registered a CC50 in data set [5] of 10000 nM. For the same molecule, the therapeutic index in the data set with WT HIV-1 (IIIB strain) (CC50 towards human T-cells vs WT EC50) is > 180,000.

For the molecule `CNc1ccc(Oc2cc(Cl)cc(/C=C/C#N)c2)c(OCCn2ccc(=O)[nH]c2=O)c1` [Compound 43, (E)-3-(3-chloro-5-(2-(2-(2,4-dioxo-3,4-dihydropyrimidin-1(2H)-yl)ethoxy)-4-(methylamino)phenoxy)phenyl)acrylonitrile], the EC50 in [4] (setting [11]) was found to be 2800 nM; in the data set on WT HIV-1 (IIIB strain) (setting [12]), 20 nM. Further, the CC50 in data set [5] amounted to 30000 nM.

On to `N#Cc1cc(Cl)cc(Oc2cc(OCc3n[nH]c4ccccc34)ccc2Cl)c1` [Compound 72], for which the EC50 is 141 nM in data set [1], 13.8 nM in the data set on HIV-1 Y181C variant [2] and 4.7 nM with WT HIV-1 [6].

On to `N#Cc1cc(Cl)cc(Oc2c(Cl)ccc(Cc3n[nH]c4nnccc34)c2F)c1` [Compound 73], for which the values for the EC50 (in data set [1]; in the data set on WT HIV-1 [6]) were 4 nM and 1 nM, respectively.

On to `N#C/C=C/c1cc(F)cc(Oc2ccc(Cl)cc2OCCn2ccc(=O)[nH]c2=O)c1` [JLJ505], for which the EC50 was 900 nM in data set [3] (setting [15]), 150 nM in data set [4] (setting [16]), 3.2 nM in the data set on WT HIV-1 (IIIB strain) (setting [19]) and 3.2 nM with WT HIV-1 (IIIB strain) (setting [20]). In addition, the CC50 in the data set on MT-2 human T-cells (setting [17]) was above 48000 nM; in the data set on MT-2 human T-cells (setting [18]) it was at least 48000 nM.

Regarding `N#C/C=C/c1cc(F)cc(Oc2ccc(F)cc2OCCn2ccc(=O)[nH]c2=O)c1` [JLJ506], the EC50 in data set [3] (setting [15]) is 85 nM; in data set [4] (setting [16]), 16 nM; in the data set on WT HIV-1 (IIIB strain) (setting [19]), 0.342 nM; with WT HIV-1 (IIIB strain) (setting [20]), 0.342 nM. The CC50 in the data set on MT-2 human T-cells (setting [17]) was above 45000 nM; in the data set with MT-2 human T-cells (setting [18]), at least 45000 nM.

On to `N#C/C=C/c1cc(F)cc(Oc2ccccc2OCCn2ccc(=O)[nH]c2=O)c1` [JLJ510], for which the EC50 came out at 75 nM in [3] (setting [15]), 80 nM in [4] (setting [16]), 0.9 nM with WT HIV-1 (IIIB strain) (setting [19]) and 0.9 nM with WT HIV-1 (IIIB strain) (setting [20]). The CC50 is 70000 nM in the data set with MT-2 human T-cells (setting [17]) and 85000 nM in the data set with MT-2 human T-cells (setting [18]).

As for `N#C/C=C/c1cc(Cl)cc(Oc2ccc(F)cc2OCCn2ccc(=O)[nH]c2=O)c1` [JLJ516], the EC50 in data set [3] (setting [15]) is 250 nM; in data set [4] (setting [16]), 60 nM; in the data set with WT HIV-1 (IIIB strain) (setting [19]), 0.77 nM; in the data set with WT HIV-1 (IIIB strain) (setting [20]), 0.77 nM. For the same molecule, the CC50 in the data set on MT-2 human T-cells (setting [17]) came out at 62000 nM; with MT-2 human T-cells (setting [18]), 63000 nM.

Take `N#C/C=C/c1cc(Cl)cc(Oc2ccccc2OCCn2ccc(=O)[nH]c2=O)c1` [JLJ532]: the EC50 in data set [3] (setting [15]) was 24 nM; in data set [4] (setting [16]) it was 46 nM; in the data set on WT HIV-1 (IIIB strain) (setting [19]), 0.31 nM; in the data set with WT HIV-1 (IIIB strain) (setting [20]), 0.31 nM. Moreover, the CC50 in the data set on MT-2 human T-cells (setting [17]) was 18000 nM; in the data set on MT-2 human T-cells (setting [18]) it was 11000 nM.

In [5], `Cc1cc2cc(Oc3cc(Cl)ccc3OCCn3ccc(=O)[nH]c3=O)ccc2o1` [JLJ538] gave a CC50 of 8000 nM. Besides, the EC50 in the data set on WT HIV-1 (IIIB strain) (setting [21]) came to 25 nM.

`O=c1ccn(CCOc2ccc(Cl)cc2Oc2ccc3occc3c2)c(=O)[nH]1` [JLJ539] displayed a CC50 in data set [5] of 19000 nM. Further, the EC50 with WT HIV-1 (IIIB strain) (setting [21]) is 800 nM.

Regarding `O=c1ccn(CCOc2ccccc2Oc2ccc3[nH]ccc3c2)c(=O)[nH]1` [JLJ547], in data set [5], the CC50 turned out to be 53000 nM. Also, the EC50 in the data set with WT HIV-1 (IIIB strain) (setting [21]) is 85 nM.

For the molecule `Cc1cc2cc(Oc3ccccc3OCCn3ccc(=O)[nH]c3=O)ccn2c1` [JLJ550], it took 9000 nM to reach half-maximal cytotoxicity in data set [5] (CC50). Further, the EC50 in the data set on WT HIV-1 (IIIB strain) (setting [21]) came out at 50 nM.

The molecule `O=c1ccn(CCOc2ccc(Cl)cc2Oc2ccc3ccoc3c2)c(=O)[nH]1` [JLJ552] came in with a half-maximal cytotoxic concentration (CC50) in data set [5] of 50000 nM. Also, the EC50 with WT HIV-1 (IIIB strain) (setting [21]) stood at 900 nM.

`N#Cc1cc2cc(Oc3ccccc3OCCn3ccc(=O)[nH]c3=O)ccn2c1` [JLJ555]: in data set [5], the CC50 is above 100000 nM. Moreover, the EC50 in the data set with WT HIV-1 (IIIB strain) (setting [21]) was determined as 0.38 nM.

For the molecule `O=C1Nc2ccc(Cl)cc2[C@@](C#CC2CC2)(C(F)(F)F)O1` [efavirenz], the EC50 was 2 nM in the data set on HIV-1 Y181C variant [7], 1.4 nM with WT HIV-1 [8] and 37 nM in data set [9].

Take `Cc1cc(C#N)cc(C)c1Oc1nc(Nc2ccc(C#N)cc2)nc(N)c1Br` [etravirine]: the EC50 in the data set on HIV-1 Y181C variant [7] was 7 nM; in data set [9], 4 nM.

On to `Cc1cc(/C=C/C#N)cc(C)c1Nc1ccnc(Nc2ccc(C#N)cc2)n1` [rilpivirine, 4-[[4-[[4-[(1E)-2-cyanoethenyl]-2,6-dimethylphenyl]amino]-2-pyrimidinyl]amino]benzonitrile], for which the CC50 in the data set on MT4 cells is 8000 nM; in the data set with MT-2 human T-cells (human), above 1000 nM. The EC50 in the data set on HIV-1 Y181C variant [7] was 1.3 nM; in the data set with WT HIV-1 [8], 0.4 nM; in data set [9], 1 nM.
